Measured values taken from publication PMC4153739 (Biochemistry, 2012).
Non-standard residues stand in square brackets, D forms with d. Residues, ends and D or L forms follow the SMILES beside them. Gla = N[C@@H](CC(C(=O)O)C(=O)O)C(=O)O

Test system: four NR2 NMDA receptor subtypes (NR2A, NR2B, NR2C, NR2D with NR1-2b)
Assay type: cell-based, rat

CC(C)C[C@H](NC(=O)[C@H](CC(C(=O)O)C(=O)O)NC(=O)[C@H](CCCNC(=N)N)NC(=O)[C@H](C)NC(=O)[C@H](Cc1ccccc1)NC(=O)[C@H](CC(C(=O)O)C(=O)O)NC(=O)[C@H](CCC(N)=O)NC(=O)[C@H](CC(N)=O)NC(=O)[C@H](CC(C(=O)O)C(=O)O)NC(=O)[C@H](C)NC(=O)[C@H](CC(C)C)NC(=O)[C@H](CC(C(=O)O)C(=O)O)NC(=O)[C@H](CC(C(=O)O)C(=O)O)NC(=O)[C@H](CCC(=O)O)NC(=O)CN)C(=O)N[C@@H](C)C(=O)N[C@@H](CC(N)=O)C(N)=O [ConRl-B[desKAO;N8Q9]] (H-GE[Gla][Gla]LA[Gla]NQ[Gla]FAR[Gla]LAN-NH2; N-terminus assumed)
activity on the four NR2 NMDA receptor subtypes, in words: little or no activity
